Data reported in US20240383875A1, “Benzimidazole Pyridine Derivatives” (Hoffmann-La Roche Inc., priority 2022, published 2024).

Assays:
Assay type in all cases: biochemical
[1] = biological target: SIK2 (Homo sapiens, UniProt Q9H0K1); assay: Enzymatic activity assay SIK2, RapidFire mass spectrometry (phosphorylation of CHK-peptide); conditions: RapidFire MS, inhibition of SIK2; read-out: SIK2 RF IC50
Procedure, shortened: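 Read-out is the summed phospho-species fraction of CHK-peptide by RapidFire mass spectrometry, normalized between DMSO and 1 μM YKL-05-099. The reaction used 0.5 nM SIK2, 100 μM ATP and 10 μM peptide solutions in HEPES pH 7.0/10 mM magnesium acetate for 45 min at ambient temperature.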

[2] = biological target: SIK3 (Homo sapiens, UniProt Q9Y2K2); assay: Enzymatic activity assay SIK3, RapidFire mass spectrometry (phosphorylation of CHK-peptide); conditions: RapidFire MS, inhibition of SIK3; read-out: SIK3 RF IC50
Chain of SIK3 (Q9Y2K2 whole entry): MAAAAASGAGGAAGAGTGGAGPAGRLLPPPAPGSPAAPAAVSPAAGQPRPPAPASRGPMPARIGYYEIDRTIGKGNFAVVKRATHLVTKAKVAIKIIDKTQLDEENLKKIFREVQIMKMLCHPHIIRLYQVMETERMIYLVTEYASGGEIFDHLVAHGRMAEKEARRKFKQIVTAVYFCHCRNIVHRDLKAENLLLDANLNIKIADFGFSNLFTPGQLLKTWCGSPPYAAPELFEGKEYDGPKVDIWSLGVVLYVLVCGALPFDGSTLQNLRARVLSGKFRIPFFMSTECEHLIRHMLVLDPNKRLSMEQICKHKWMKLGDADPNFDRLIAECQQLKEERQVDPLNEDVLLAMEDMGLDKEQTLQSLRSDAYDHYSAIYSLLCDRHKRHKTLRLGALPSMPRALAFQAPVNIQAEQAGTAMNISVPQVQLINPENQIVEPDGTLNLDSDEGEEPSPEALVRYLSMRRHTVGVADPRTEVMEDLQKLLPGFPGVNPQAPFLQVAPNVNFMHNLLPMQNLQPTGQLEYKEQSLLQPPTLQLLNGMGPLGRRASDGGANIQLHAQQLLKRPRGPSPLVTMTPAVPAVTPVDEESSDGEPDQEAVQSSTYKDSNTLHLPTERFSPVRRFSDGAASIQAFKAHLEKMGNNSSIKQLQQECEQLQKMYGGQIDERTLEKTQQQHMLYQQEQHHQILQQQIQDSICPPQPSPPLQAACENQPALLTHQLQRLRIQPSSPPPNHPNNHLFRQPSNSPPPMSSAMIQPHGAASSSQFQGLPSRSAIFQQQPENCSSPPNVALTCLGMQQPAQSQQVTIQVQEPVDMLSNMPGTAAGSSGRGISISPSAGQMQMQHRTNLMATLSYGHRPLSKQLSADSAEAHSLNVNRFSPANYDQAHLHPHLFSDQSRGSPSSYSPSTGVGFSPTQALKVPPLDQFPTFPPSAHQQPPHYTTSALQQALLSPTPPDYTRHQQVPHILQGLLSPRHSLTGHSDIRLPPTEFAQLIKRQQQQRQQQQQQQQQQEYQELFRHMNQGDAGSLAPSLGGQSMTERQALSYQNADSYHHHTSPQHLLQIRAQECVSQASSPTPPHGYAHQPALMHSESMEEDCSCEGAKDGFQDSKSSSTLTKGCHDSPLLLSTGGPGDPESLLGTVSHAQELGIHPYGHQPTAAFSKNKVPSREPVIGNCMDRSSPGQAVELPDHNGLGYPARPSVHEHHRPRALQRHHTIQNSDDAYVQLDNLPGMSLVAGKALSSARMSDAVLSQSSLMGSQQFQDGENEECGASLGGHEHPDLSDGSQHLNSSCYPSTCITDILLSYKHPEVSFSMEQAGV
Procedure, shortened: (§1)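 Human SIK1/2/3, 5/0.5/1.5 nM; 12.5 mM HEPES pH 7.0, 10 mM Mg acetate, 0.005% BSA. 30 min cpd pre-inc, + CHK-peptide (10 μM soln) + ATP (100 μM soln), 45 min RT. Formic acid stop; RF-MS phospho ratio; IC50.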

[3] = biological target: SIK1 (Homo sapiens, UniProt P57059); assay: Enzymatic activity assay SIK1, RapidFire mass spectrometry (phosphorylation of CHK-peptide); conditions: RapidFire MS, inhibition of SIK1; read-out: SIK1 RF IC50
Chain of SIK1 (P57059 whole entry): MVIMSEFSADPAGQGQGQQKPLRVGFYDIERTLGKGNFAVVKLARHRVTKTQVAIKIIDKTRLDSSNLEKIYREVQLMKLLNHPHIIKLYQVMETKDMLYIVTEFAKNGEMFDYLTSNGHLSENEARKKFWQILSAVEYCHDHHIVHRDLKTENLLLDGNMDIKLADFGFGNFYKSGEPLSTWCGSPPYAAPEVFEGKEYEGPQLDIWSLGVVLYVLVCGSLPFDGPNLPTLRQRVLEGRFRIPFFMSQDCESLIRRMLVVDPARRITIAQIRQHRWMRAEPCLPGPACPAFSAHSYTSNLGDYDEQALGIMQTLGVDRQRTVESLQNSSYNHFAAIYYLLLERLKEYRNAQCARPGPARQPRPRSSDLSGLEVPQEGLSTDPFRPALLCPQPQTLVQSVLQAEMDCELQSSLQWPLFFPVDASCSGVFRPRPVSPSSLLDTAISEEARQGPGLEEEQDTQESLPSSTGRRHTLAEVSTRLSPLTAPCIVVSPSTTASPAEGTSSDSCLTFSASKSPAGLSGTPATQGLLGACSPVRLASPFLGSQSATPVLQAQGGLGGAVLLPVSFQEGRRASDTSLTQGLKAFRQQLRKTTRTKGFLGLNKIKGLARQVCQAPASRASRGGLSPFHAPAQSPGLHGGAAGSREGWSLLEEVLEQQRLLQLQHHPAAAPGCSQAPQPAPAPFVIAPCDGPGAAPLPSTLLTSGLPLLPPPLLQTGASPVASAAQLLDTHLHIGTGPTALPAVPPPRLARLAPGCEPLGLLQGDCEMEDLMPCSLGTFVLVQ
Procedure, shortened: as §1

Chain of SIK2 (Q9H0K1 whole entry): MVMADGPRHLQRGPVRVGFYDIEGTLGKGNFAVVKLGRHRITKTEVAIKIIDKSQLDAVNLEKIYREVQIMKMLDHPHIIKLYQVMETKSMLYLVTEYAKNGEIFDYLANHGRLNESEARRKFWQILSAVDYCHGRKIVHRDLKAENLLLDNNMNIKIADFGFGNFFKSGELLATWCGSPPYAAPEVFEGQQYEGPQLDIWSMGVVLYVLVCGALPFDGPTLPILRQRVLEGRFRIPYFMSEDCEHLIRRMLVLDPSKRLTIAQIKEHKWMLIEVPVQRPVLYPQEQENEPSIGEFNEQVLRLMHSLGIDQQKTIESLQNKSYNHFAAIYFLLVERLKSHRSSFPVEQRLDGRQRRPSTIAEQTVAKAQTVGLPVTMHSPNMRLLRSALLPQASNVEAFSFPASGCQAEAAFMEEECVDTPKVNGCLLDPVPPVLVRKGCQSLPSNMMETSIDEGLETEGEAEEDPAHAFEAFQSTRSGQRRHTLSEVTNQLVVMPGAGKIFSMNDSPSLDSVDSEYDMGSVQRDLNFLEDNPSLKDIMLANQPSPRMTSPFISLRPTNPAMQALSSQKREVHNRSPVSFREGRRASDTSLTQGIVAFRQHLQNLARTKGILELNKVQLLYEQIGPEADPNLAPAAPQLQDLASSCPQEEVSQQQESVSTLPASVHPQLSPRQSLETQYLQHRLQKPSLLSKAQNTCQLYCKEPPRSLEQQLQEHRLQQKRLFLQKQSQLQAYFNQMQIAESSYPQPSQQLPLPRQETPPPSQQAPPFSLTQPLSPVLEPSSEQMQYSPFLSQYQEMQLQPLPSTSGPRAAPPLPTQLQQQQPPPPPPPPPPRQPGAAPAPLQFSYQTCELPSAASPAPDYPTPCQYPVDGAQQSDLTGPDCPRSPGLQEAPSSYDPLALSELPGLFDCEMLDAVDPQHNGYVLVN

Row | Compound | IC50 [1] [nM] | IC50 [2] [nM] | IC50 [3] [nM]
1 | COc1cc2c(cc1Nc1cnc(C)nc1)ncn2-c1ccc([C@H](C)O)c(-n2nc(OC(F)F)cc2C)n1 [Example 400, (1S)-1-[2-[3-(difluoromethoxy)-5-methyl-pyrazol-1-yl]-6-[6-methoxy-5-[(2-methylpyrimidin-5-yl)amino]benzimidazol-1-yl]-3-pyridyl]ethanol] | 0.6 | 7.8 | 2
2 | Cc1ccc(Nc2ccc3c(c2)ncn3-c2ccc(C(C)O)c(-c3nc(CC(F)(F)F)nn3C)n2)nn1 (stereo not drawn) [Example 401, 1-[6-[5-[(6-methylpyridazin-3-yl)amino]benzimidazol-1-yl]-2-[2-methyl-5-(2,2,2-trifluoroethyl)-1,2,4-triazol-3-yl]-3-pyridyl]ethanol] | 10.4 | 4.2 | 1360
3 | Cc1ccc(Nc2cc3ncn(-c4ccc([C@H](C)O)c(-n5nc(C#N)cc5C)n4)c3cc2OC(F)F)nn1 [Example 402, 1-[6-[6-(difluoromethoxy)-5-[(6-methylpyridazin-3-yl)amino]benzimidazol-1-yl]-3-[(1S)-1-hydroxyethyl]-2-pyridyl]-5-methyl-pyrazole-3-carbonitrile] | 0.2 | 0.3 | 5
4 | Cc1ccc(Nc2cc3ncn(-c4ccc([C@@H](C)O)c(-n5nc(C#N)cc5C)n4)c3cc2OC(F)F)nn1 [Example 403, 1-[6-[6-(difluoromethoxy)-5-[(6-methylpyridazin-3-yl)amino]benzimidazol-1-yl]-3-[(1R)-1-hydroxyethyl]-2-pyridyl]-5-methyl-pyrazole-3-carbonitrile] | 24.7 | 32.2 | 458
5 | N-[1-[6-[3-(difluoromethyl)-5-methyl-pyrazol-1-yl]-5-(1-hydroxyethyl)-2-pyridyl]-6-fluoro-benzimidazol-5-yl] cyclopropanecarboxamide [Example 361] | 63.9 | 51.1 | 321

Next, values leading:

Row | IC50 [1] [nM] | IC50 [2] [nM] | IC50 [3] [nM] | Compound
6 | 0.5 | 0.5 | 41 | Cc1ccc(Nc2ccc3c(c2)ncn3-c2ccc(C(C)O)c(-n3nc(OC(F)F)cc3C(F)F)n2)nn1 (stereo not drawn) [Example 404, 1-[2-[3-(difluoromethoxy)-5-(difluoromethyl)pyrazol-1-yl]-6-[5-[(6-methylpyridazin-3-yl)amino]benzimidazol-1-yl]-3-pyridyl]ethanol]
7 | 19.8 | 150 | 39 | Cc1ccc(Nc2ccc3ncn(-c4ccc(C(C)O)c(-n5nc(OC(F)F)cc5C(F)F)n4)c3c2)nn1 (stereo not drawn) [Example 405]
8 | 13.4 | 144 | 47 | Cc1ccc(Nc2cc3c(cc2CC2COC2)ncn3-c2ccc(C(C)O)c(-n3nc(OC(F)F)cc3C)n2)nn1 (stereo not drawn) [Example 406, 1-[2-[3-(difluoromethoxy)-5-methyl-pyrazol-1-yl]-6-[6-[(6-methylpyridazin-3-yl)amino]-5-(oxetan-3-ylmethyl)benzimidazol-1-yl]-3-pyridyl]ethanol]
9 | 12.9 | 22.9 | 321 | Cc1ccc(Nc2cc3ncn(-c4ccc(C(C)O)c(-n5nc(OC(F)F)cc5C)n4)c3cc2CC2COC2)nn1 (stereo not drawn) [Example 407, 1-[2-[3-(difluoromethoxy)-5-methyl-pyrazol-1-yl]-6-[5-[(6-methylpyridazin-3-yl)amino]-6-(oxetan-3-ylmethyl)benzimidazol-1-yl]-3-pyridyl]ethanol]
